Test results taken from patent US9399626B2, “2-thiopyrimidinones” (Pfizer Inc., priority 2011, dated 2016).
Counter-ions that a name gives are not always drawn.

Each molecule was assayed against T1, MPO (purified from human polynuclear leukocytes) (Homo sapiens, UniProt P05164) (assay: MPO Amplex Red Activity Assay). Conditions: Table 1, 2 μM H2O2, pH 7.4.
T1 construct: purified from human polynuclear leukocytes; purchased Calbiochem/EMD Biosciences; host or cells: human polynuclear leukocytes (natural source)
Format: biochemical
Outline: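 Human leukocyte MPO […] oxidises 30 μM Amplex Red with 2 μM H2O2 in 50 mM NaPi pH 7.4, 150 mM NaCl, 1 mM DTPA, 2% DMSO. Resorufin fluorescence (ex 530/em 580 nm) read every 20 s, minus catalase background. kobs from the first 600 s, corrected for auto-inactivation, fit versus [I] for kinact/KI.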

T1 sequence (P05164 279-745 limits assumed): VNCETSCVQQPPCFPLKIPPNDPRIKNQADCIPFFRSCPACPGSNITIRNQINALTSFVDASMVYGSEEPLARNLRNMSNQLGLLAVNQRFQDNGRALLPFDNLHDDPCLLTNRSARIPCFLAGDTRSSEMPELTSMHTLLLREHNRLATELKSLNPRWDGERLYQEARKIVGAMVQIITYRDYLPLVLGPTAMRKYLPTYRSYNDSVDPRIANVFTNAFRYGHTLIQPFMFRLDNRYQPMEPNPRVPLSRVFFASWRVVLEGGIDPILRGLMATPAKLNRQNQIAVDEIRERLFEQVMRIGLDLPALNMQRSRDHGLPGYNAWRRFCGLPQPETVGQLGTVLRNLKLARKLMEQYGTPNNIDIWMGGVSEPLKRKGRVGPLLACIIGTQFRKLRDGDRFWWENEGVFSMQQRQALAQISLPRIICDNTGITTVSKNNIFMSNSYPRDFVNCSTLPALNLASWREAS
T1 sequence (P05164 165-273 limits assumed): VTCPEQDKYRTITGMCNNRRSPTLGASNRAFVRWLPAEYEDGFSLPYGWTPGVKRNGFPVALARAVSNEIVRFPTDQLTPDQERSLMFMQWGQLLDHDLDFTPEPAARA

Row | Structure (SMILES) | MPO kinact/Ki
1 | COc1ccc(-c2cc(=O)[nH]c(=S)n2CCCCCO)c(OC)c1 [Example 225, 6-(2,4-dimethoxyphenyl)-1-(5-hydroxypentyl)-2-thioxo-2,3-dihydropyrimidin-4(1H)-one] | 5490 1/s per M
2 | COc1ccc(-c2cc(=O)[nH]c(=S)n2CCCC[C@H](N)C(N)=O)c(OC)c1 [Example 260, 6-[6-(2,4-dimethoxyphenyl)-4-oxo-2-thioxo-3,4-dihydropyrimidin-1(2H)-yl]norleucinamide hydrochloride] | 19700 1/s per M
3 | COc1ccc(-c2cc(=O)[nH]c(=S)n2CC(=O)NC(=N)N)c(OC)c1 [Example 236, N-[amino(imino)methyl]-2-[6-(2,4-dimethoxyphenyl)-4-oxo-2-thioxo-3,4-dihydropyrimidin-1(2H)-yl]acetamide trifluoroacetate] | 5740 1/s per M
4 | COc1ccc(-c2cc(=O)[nH]c(=S)n2CCO)c(OC)c1 [Example 3, 6-(2,4-Dimethoxyphenyl)-1-(2-hydroxyethyl)-2-thioxo-2,3-dihydropyrimidin-4(1H)-one] | 29300 1/s per M
5 | COCCn1c(-c2cc3ccccc3cc2OC)cc(=O)[nH]c1=S [Example 117, 1-(2-methoxyethyl)-6-(3-methoxy-2-naphthyl)-2-thioxo-2,3-dihydropyrimidin-4(1H)-one] | 11400 1/s per M
6 | COc1ncc(C)cc1-c1cc(=O)[nH]c(=S)n1CCN [Example 19, 1-(2-aminoethyl)-6-(2-methoxy-5-methylpyridin-3-yl)-2-thioxo-2(3-dihydropyrimidin-4(1H)-one trifluoroacetate] | 1960 1/s per M
7 | COCCn1c(-c2cccc(S(=O)(=O)N(C)C)c2)cc(=O)[nH]c1=S [Example 348, 3-[3-(2-methoxyethyl)-6-oxo-2-thioxo-1,2,3,6-tetrahydropyrimidin-4-yl]-N,N-dimethylbenzenesulfonamide] | 1400 1/s per M
8 | COc1ccc(OC)c(-c2cc(=O)[nH]c(=S)n2CCN)c1 [Example 166, 1-(2-aminoethyl)-6-(2,5-dimethoxyphenyl)-2-thioxo-2,3-dihydropyrimidin-4(1H)-one hydrochloride] | 8920 1/s per M
9 | COc1cc2ccccc2cc1-c1cc(=O)[nH]c(=S)n1CC(N)=O [Example 112, 2-[6-(3-methoxy-2-naphthyl)-4-oxo-2-thioxo-3,4-dihydropyrimidin-1(2H)-yl]acetamide] | 14900 1/s per M
10 | COc1ccc(-c2cc(=O)[nH]c(=S)n2CCNC(=O)[C@H](C)N)c(OC)c1 [Example 256, N-{2-[6-(2,4-dimethoxyphenyl)-4-oxo-2-thioxo-3,4-dihydropyrimidin-1(2H)-yl]ethyl}-L-alaninamide trifluoroacetate] | 6520 1/s per M
11 | COCCn1c(-c2cccnc2)cc(=O)[nH]c1=S [Example 279, 1-(2-methoxyethyl)-6-pyridin-3-yl-2-thioxo-2,3-dihydropyrimidin-4(1H)-one] | 386 1/s per M
12 | NCCn1c(-c2ccccc2OCCO)cc(=O)[nH]c1=S [Example 53, 1-(2-aminoethyl)-6-[2-(2-hydroxyethoxy)phenyl]-2-thioxo-2,3-dihydropyrimidin-4(1H)-one hydrochloride] | 3290 1/s per M
13 | COCCn1c(-c2cc(C#N)ccc2OC)cc(=O)[nH]c1=S [Example 171, 4-methoxy-3-[3-(2-methoxyethyl)-6-oxo-2-thioxo-1,2,3,6-tetrahydropyrimidin-4-yl]benzonitrile] | 8590 1/s per M
14 | COCCn1c(-c2c[nH]c3ccccc23)cc(=O)[nH]c1=S [Example 33, 6-(1H-indol-3-yl)-1-(2-methoxyethyl)-2-thioxo-2,3-dihydropyrimidin-4(1H)-one] | 4520 1/s per M
15 | COc1cccc(-c2cc(=O)[nH]c(=S)n2CCCN)c1 [Example 265, 1-(3-aminopropyl)-6-(3-methoxyphenyl)-2-thioxo-2,3-dihydropyrimidin-4(1H)-one hydrochloride] | 3730 1/s per M
16 | COc1ccc(-c2cc(=O)[nH]c(=S)n2Cc2ccccc2)c(OC)c1 [Example 228, 1-benzyl-6-(2,4-dimethoxyphenyl)-2-thioxo-2,3-dihydropyrimidin-4(1H)-one] | 615 1/s per M
17 | COCCn1c(-c2ccc3cc[nH]c3c2)cc(=O)[nH]c1=S [Example 301, 6-(1H-indol-6-yl)-1-(2-methoxyethyl)-2-thioxo-2,3-dihydropyrimidin-4(1H)-one] | 3330 1/s per M
18 | COCCn1c(-c2cccc3[nH]ccc23)cc(=O)[nH]c1=S [Example 304, 6-(1H-indol-4-yl)-1-(2-methoxyethyl)-2-thioxo-2,3-dihydropyrimidin-4(1H)-one] | 6290 1/s per M
19 | COCCn1c(-c2c(OC)ccc3ccccc23)cc(=O)[nH]c1=S [Example 339, 1-(2-methoxyethyl)-6-(2-methoxy-1-naphthyl)-2-thioxo-2,3-dihydropyrimidin-4(1H)-one] | 10400 1/s per M
20 | COc1cc(F)ccc1-c1cc(=O)[nH]c(=S)n1CCCN [Example 57, 1-(3-aminopropyl)-6-(4-fluoro-2-methoxyphenyl)-2-thioxo-2,3-dihydropyrimidin-4(1H)-one hydrochloride] | 13100 1/s per M
21 | COc1ccc(-c2cc(=O)[nH]c(=S)n2C[C@@H]2CCCO2)c(OC)c1 [Example 213, 6-(2,4-dimethoxyphenyl)-1-[(2S)-tetrahydrofuran-2-ylmethyl]-2-thioxo-2,3-dihydropyrimidin-4(1H)-one] | 4690 1/s per M
22 | NC(=O)Cn1c(-c2csc3ccccc23)cc(=O)[nH]c1=S [Example 68, 2-[6-(1-benzothien-3-yl)-4-oxo-2-thioxo-3,4-dihydropyrimidin-1(2H)-yl]acetamide] | 1160 1/s per M

Same assay, conditions: Table 1A, 2 μM H2O2, pH 7.4

Row | Structure (SMILES) | MPO kinact/Ki
23 | COc1ccc(C)cc1-c1cc(=O)[nH]c(=S)n1CC(=O)NCCN [Example 373, N-(2-aminoethyl)-2-[6-(2-methoxy-5-methylphenyl)-4-oxo-2-thioxo-3,4-dihydropyrimidin-1(2H)-yl]acetamide] | 12800 1/s per M
24 | COc1ccc(Cl)cc1-c1cc(=O)[nH]c(=S)n1CCCNC(=N)N1CCCC1 [Example 450, N-{3-[6-(5-chloro-2-methoxyphenyl)-4-oxo-2-thioxo-3,4-dihydropyrimidin-1(2H)-yl]propyl}pyrrolidine-1-carboximidamide] | 7730 1/s per M
25 | COc1ccc(Cl)cc1-c1cc(=O)[nH]c(=S)n1CCCNS(C)(=O)=O [Example 353, N-{3-[6-(5-chloro-2-methoxyphenyl)-4-oxo-2-thioxo-3,4-dihydropyrimidin-1(2H)-yl]propyl}methanesulfonamide] | 11000 1/s per M
26 | COc1ccc(-c2cc(=O)[nH]c(=S)n2CCNCCO)c(OC)c1 [Example 383, 6-(2,4-dimethoxyphenyl)-1-{2-[(2-hydroxyethyl)amino]ethyl}-2-thioxo-2,3-dihydropyrimidin-4(1H)-one] | 5230 1/s per M
27 | COc1ccc(-c2cc(=O)[nH]c(=S)n2CC(=O)N[C@H]2C[C@H](N)C2)c(OC)c1 [Example 437, N-(trans-3-aminocyclobutyl)-2-[6-(2,4-dimethoxyphenyl)-4-oxo-2-thioxo-3,4-dihydropyrimidin-1(2H)-yl]acetamide] | 3400 1/s per M
28 | COc1ccc(OCCO)c(-c2cc(=O)[nH]c(=S)n2CC(N)=O)c1 [Example 380, 2-{6-[2-(2-hydroxyethoxy)-5-methoxyphenyl]-4-oxo-2-thioxo-3,4-dihydropyrimidin-1(2H)-yl}acetamide] | 4470 1/s per M
29 | COc1ccc(-c2cc(=O)[nH]c(=S)n2CC(=O)NCCN(C)C)c(OC)c1 [Example 392, 2-[6-(2,4-dimethoxyphenyl)-4-oxo-2-thioxo-3,4-dihydropyrimidin-1(2H)-yl]-N-[2-(dimethylamino)ethyl]acetamide] | 5830 1/s per M
30 | COc1ccc(-c2cc(=O)[nH]c(=S)n2CC(=O)NCCN)c(OCCO)c1 [Example 404, N-(2-aminoethyl)-2-{6-[2-(2-hydroxyethoxy)-4-methoxyphenyl]-4-oxo-2-thioxo-3,4-dihydropyrimidin-1(2H)-yl}acetamide] | 6200 1/s per M
31 | COc1ccc(-c2cc(=O)[nH]c(=S)n2CC(=O)NC2CNC2)c(OC)c1 [Example 438, N-(azetidin-3-yl)-2-[6-(2,4-dimethoxyphenyl)-4-oxo-2-thioxo-3,4-dihydropyrimidin-1(2H)-yl]acetamide] | 7550 1/s per M
32 | NC(=O)Cn1c(-c2cccc3ncccc23)cc(=O)[nH]c1=S [Example 367, 2-[4-oxo-6-(quinolin-5-yl)-2-thioxo-3,4-dihydropyrimidin-1(2H)-yl]acetamide] | 1340 1/s per M
33 | NCCNC(=O)Cn1c(-c2cc(Cl)ccc2OCCO)cc(=O)[nH]c1=S [Example 424, N-(2-aminoethyl)-2-{6-[5-chloro-2-(2-hydroxyethoxy)phenyl]-4-oxo-2-thioxo-3,4-dihydropyrimidin-1(2H)-yl}acetamide] | 6870 1/s per M
34 | NCCNC(=O)Cn1c(-c2cc(F)ccc2OCCO)cc(=O)[nH]c1=S [Example 405, N-(2-aminoethyl)-2-{6-[5-fluoro-2-(2-hydroxyethoxy)phenyl]-4-oxo-2-thioxo-3,4-dihydropyrimidin-1(2H)-yl}acetamide] | 5970 1/s per M
